According to patent US20080319042A1, “Compositions and methods for treatment of liver disease” (priority 2007, published 2008):
Values joined by “and” are separate entries in the source; they are usually repeats but may differ in a detail not shown here. Equal entries are not always repeated.

Legend:
VSVG/HIV pseudovirions = test: VSVG/HIV pseudoviral entry into HUH7 cells; assay type: cell-based, vesicular stomtatis virus; settings: 100 μg/mL, FIG. 3
HBeAg = test: Anti-HBSAg Assay (Procedure B), HBeAg; assay type: cell-based, hepatitis B virus; design: HBeAg Ave: unit not given here
Ebola = assay type: cell-based; settings: 50 mg·mL; FIG. 4
HBV DNA = test: Anti-HBV DNA Assay; assay type: cell-based, hepatitis B virus; settings: for HBV DNA copies/ml: replicates, listed as HP-S2
[1] = system: hepatitis B surface antigen (HBsAg) production; test: Anti-HBSAg Assay (Procedure A); assay type: cell-based, hepatitis B virus; settings: 50 μg/ml
Procedure: The HBV-producing human hepatoblastoma cell line, Hep G2.2.15 was maintained in DMEM supplemented with 10% fetal bovine serum (FBS), 2 mM glutamine, 100 units/ml penicillin, 100 μg/ml streptomycin and 380 μg/ml gentamicin sulfate (G418) at 37° C. under 5% CO2 in air. The Hep G2 parental cells were grown under identical conditions in MEM with Earle's salts without G418.
Hep G2.2.15 cells (190 μl) were seeded onto microtiter plates at a concentration of 20×10^4 cells/ml. The cells incubated overnight in medium without G418 after which the compound compositions (10 μl) were added. Five 2-fold serial dilutions of extracts or fractions were tested starting at 200 μg/ml final culture concentration. PBS and 3TC (lamivudine) were included as the negative and positive controls, respectively. The treated cells were incubated at 37° C. for 4 days, after which the hepatitis B surface antigen (HBsAg) production in culture supernatants was assayed. The HBsAg released into the culture medium in the presence or absence of test samples was assayed using the BIO-RAD Genetic Systems HBsAg EIA 3.0 kit (Bio-Rad, Redmond, Wash.). This enzyme immunoassay is based on the capture of HBsAg on monoclonal antibody-coated plates. Four- and twelve-fold dilutions of all culture supernatants collected were assayed in triplicate wells of the EIA plate. The percentage inhibition of HBsAg secretion in the presence of the plant samples was calculated against the negative control (PBS).

Compound: COC(=O)C1=COC(O)C2C1C(O)C(O)C2(C)O (mixture of isomers) [lamiridosin]
- VSVG/HIV pseudoviral entry blocking (VSVG/HIV pseudovirions): does not block
- HBeAg Ave (HBeAg; 9.375 μg/mL): 1.327
- HBeAg Inhibition % (HBeAg; 9.375 μg/mL): 2.7%
- HBeAg OD1 (HBeAg; 9.375 μg/mL): 1.455
- HBeAg OD2 (HBeAg; 9.375 μg/mL): 1.416
- HBeAg OD3 (HBeAg; 9.375 μg/mL): 1.109
- HBeAg Ave (HBeAg; 18.75 μg/mL): 1.244
- HBeAg Inhibition % (HBeAg; 18.75 μg/mL): 8.5%
- HBeAg OD1 (HBeAg; 18.75 μg/mL): 1.151
- HBeAg OD2 (HBeAg; 18.75 μg/mL): 1.171
- HBeAg OD3 (HBeAg; 18.75 μg/mL): 1.410
- HBeAg Ave (HBeAg; 37.5 μg/mL): 1.195
- HBeAg Inhibition % (HBeAg; 37.5 μg/mL): 12.1%
- HBeAg OD1 (HBeAg; 37.5 μg/mL): 1.073
- HBeAg OD2 (HBeAg; 37.5 μg/mL): 1.275
- HBeAg OD3 (HBeAg; 37.5 μg/mL): 1.238
- activity against Ebola virus entry (Ebola): inactive
- HBV DNA Average (HBV DNA; 9.37 μg/ml): 9.81 × 10^5 copies/ml
- HBV DNA Inhibit (HBV DNA; 9.37 μg/ml): 0.00%
- HBV DNA copies/ml (HBV DNA; 9.37 μg/ml): 1.12E+6 copies/ml and 1.01E+06 copies/ml and 1.22E+06 copies/ml
- HBV DNA Average (HBV DNA; 18.75 μg/ml): 8.90 × 10^5 copies/ml
- HBV DNA Inhibit (HBV DNA; 18.75 μg/ml): 23.90%
- HBV DNA copies/ml (HBV DNA; 18.75 μg/ml): 8.22E+05 copies/ml and 8.73E+05 copies/ml and 9.76E+05 copies/ml
- HBV DNA Average (HBV DNA; 37.5 μg/ml): 6.49 × 10^5 copies/ml
- HBV DNA Inhibit (HBV DNA; 37.5 μg/ml): 44.5%
- HBV DNA copies/ml (HBV DNA; 37.5 μg/ml): 5.06E+05 copies/ml and 8.57E+05 copies/ml and 5.85E+05 copies/ml
- % Control HBSAg [1]: 100%
- % Inhibition [1]: 0%
- anti-HBSAg assay activity (in words) ([1]; Table 1): inactive
